In paper PMC9354084 (ACS Chemical Neuroscience, 2022):
Like-named read-outs stand apart in the source and are kept apart here.

Tests used:
[1] = molecular target: T1, CK-1δ (Homo sapiens, UniProt P48730); conditions: cited from earlier work
T1 construct: amino acids 1–294; GST (N); purchased Merck Millipore
T1 sequence (P48730 1-294): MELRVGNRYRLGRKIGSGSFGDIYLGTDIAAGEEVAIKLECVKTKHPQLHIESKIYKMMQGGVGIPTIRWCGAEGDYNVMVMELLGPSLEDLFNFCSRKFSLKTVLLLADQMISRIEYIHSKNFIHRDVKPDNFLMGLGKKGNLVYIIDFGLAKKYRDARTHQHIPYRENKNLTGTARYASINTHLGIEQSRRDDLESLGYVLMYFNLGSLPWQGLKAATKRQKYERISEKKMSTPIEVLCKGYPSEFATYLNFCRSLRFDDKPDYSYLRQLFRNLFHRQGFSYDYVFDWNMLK

[2] = molecular target: T2, hMAO-A (Homo sapiens, UniProt P21397); experiment: hMAO-A inhibitory activity (kynuramine, spectrophotometric); assay type: biochemical; conditions: for inhibition at 10 µM: read-out: hMAO-A inhibition at the highest concentration tested
T2 sequence (P21397 1-527): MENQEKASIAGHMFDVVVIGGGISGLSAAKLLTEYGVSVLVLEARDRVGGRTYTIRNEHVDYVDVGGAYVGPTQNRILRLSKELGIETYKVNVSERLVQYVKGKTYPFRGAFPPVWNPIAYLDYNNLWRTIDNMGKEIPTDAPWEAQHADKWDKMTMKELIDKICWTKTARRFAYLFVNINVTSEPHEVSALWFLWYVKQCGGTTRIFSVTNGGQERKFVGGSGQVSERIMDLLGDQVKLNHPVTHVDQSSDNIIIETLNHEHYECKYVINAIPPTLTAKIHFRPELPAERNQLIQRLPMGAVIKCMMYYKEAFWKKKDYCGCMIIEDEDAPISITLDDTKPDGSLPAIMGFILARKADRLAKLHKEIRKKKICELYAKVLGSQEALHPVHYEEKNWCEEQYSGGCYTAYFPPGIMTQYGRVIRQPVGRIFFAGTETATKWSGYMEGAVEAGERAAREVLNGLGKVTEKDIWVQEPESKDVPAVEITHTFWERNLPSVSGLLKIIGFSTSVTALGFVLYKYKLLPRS

[3] = molecular target: T3, hMAO-B (Homo sapiens, UniProt P27338); experiment: hMAO-B inhibitory activity (kynuramine, spectrophotometric); assay type: biochemical; conditions: for inhibition at 10 µM: read-out: hMAO-B inhibition at the highest concentration tested; for SI: hMAO-B selectivity index = IC50 (hMAO-A)/IC50 (hMAO-B): bounds assume IC50 = 10 µM for inactive isoform
T3 sequence (P27338 1-520): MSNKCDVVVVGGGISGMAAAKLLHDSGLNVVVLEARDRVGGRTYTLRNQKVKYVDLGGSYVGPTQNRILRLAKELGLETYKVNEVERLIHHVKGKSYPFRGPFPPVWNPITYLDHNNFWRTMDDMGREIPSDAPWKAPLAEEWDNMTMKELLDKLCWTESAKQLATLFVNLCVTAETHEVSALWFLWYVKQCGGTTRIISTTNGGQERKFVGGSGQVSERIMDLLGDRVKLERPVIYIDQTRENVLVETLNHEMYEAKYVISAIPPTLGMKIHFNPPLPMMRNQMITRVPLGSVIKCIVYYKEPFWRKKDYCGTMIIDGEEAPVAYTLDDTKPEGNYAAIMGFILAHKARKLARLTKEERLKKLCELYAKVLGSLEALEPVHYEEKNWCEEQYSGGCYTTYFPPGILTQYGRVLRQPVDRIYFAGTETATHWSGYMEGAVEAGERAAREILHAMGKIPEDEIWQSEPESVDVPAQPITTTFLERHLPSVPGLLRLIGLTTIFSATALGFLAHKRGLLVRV

[4] = tested on: LH5 lymphoblasts; experiment: Antioxidant activity after menadione in healthy lymphoblasts; assay type: cell-based, human; conditions: LH5, 10 μM menadione 3 h, 10 µM compound pretreatment 21 h
[5] = tested on: iNOS expression in N9 microglial cells; experiment: Immunomodulation in LPS-insulted N9 microglia, iNOS Western blot; assay type: cell-based; conditions: LPS-insulted N9, 10 μM
[6] = tested on: Bcl-2 expression in N9 microglial cells; experiment: Antiapoptotic effects in LPS-insulted N9 microglia, Bcl-2 Western blot; assay type: cell-based
[7] = molecular target: T1, CK-1δ; experiment: CK-1δ activity assay (KinaseGlo luminescence); assay type: biochemical; conditions: read-out: residual CK-1δ activity (%)
Description: CK-1δ activity assay. Compounds were evaluated towards CK-1δ (Merck Millipore, recombinant human, amino acids 1–294, with N-terminal GST-tagged) with the KinaseGloR luminescence assay (Promega) […]
following procedures reported in literature.10 In detail, luminescent assays were performed in black 96-well plates, using a buffer composed of: 50 mM HEPES (pH 7.5), 1 mM EDTA, 1 mM EGTA, and 15 mM […]
solution was used as a negative control. In a typical assay, 10 μL of inhibitor solution (obtained using a 10 mM DMSO solution diluted in assay buffer to 160 μM that corresponds to a final concentration of 40 μM in the assay) and 10 μL (16 ng of CK1δ) of enzyme solution were added to the well, followed by 20 μL of assay buffer containing 0.1% casein substrate and 4 μM ATP. The final DMSO concentration in the reaction […]
After 60 min of incubation at 30 °C for CK1δ the enzymatic reactions were stopped with 40 μL of Kinase-Glo reagent (Promega). Luminescence signal (relative light unit,RLU) was recorded after 10 min at 25 °C using Tecan Infinite M100. The activity is proportional to the difference of the total and consumed ATP. The residual activities of the enzyme were calculated on the basis of maximal activities measured in the absence of inhibitor. Data were analyzed using Excel and percentages of enzyme residual activity are reported as means ± standard deviation of two independent experiments performed in […]

[8] = PAMPA-BBB permeability assay; conditions: for Papp: PAMPA, PAMPA-BBB; for CNS prediction: predicted from PAMPA Pe
[9] = tested on: LPS5 lymphoblasts; experiment: Antioxidant activity after menadione in ALS patient lymphoblasts; assay type: cell-based, human; conditions: for rescue of cell viability after menadione: LPS5, 10 μM menadione 3 h, 10 µM compound pretreatment 21 h
[10] = tested on: primary cerebellar granule neurons (CGNs); experiment: Neuroprotection on glutamate-mediated excitotoxicity in CGNs (MTT); conditions: 100 μM glutamate; for reversal of glutamate-mediated excitotoxicity: CGNs
[11] = tested on: LPS5 lymphoblasts; experiment: Cell viability in mutSOD1 lymphoblasts (resazurin reduction); assay type: cell-based, human; conditions: LPS5 (mutSOD1), 1, 10, 100 µM, 24 h
[12] = Antioxidant activity after menadione in healthy lymphoblasts; assay type: cell-based, human; conditions: human, LH5 lymphoblast-derived cell line, read-out: cell viability after menadione insult
[13] = Antioxidant activity after menadione in ALS patient lymphoblasts; assay type: cell-based, human; conditions: human, LPS5 lymphoblast-derived cell line; LPS5, 50 μM menadione; read-out: cell viability after menadione insult
[14] = PAMPA
[15] = Table S3, mean ± SD, highest concentration 10 µM, read-out: IC50 hMAO-A
[16] = Table S3, mean ± SD, highest concentration 10 µM, read-out: IC50 hMAO-B
[17] = pH 7.4, Pe, in vitro permeability coefficient, PBS pH 7.4, Pe ± SEM
[18] = pH 7.4, permeability coefficient (Pe)

| IC50 [2, 15] | IC50 [3, 16] | inhibition at 10 µM [2] | inhibition at 10 µM [3] | remaining activity at 40 µM [7] | Papp [8, 17] | SMILES | CNS prediction [8] | further results |
| --- | --- | --- | --- | --- | --- | --- | --- | --- |
|  |  |  |  |  |  | CC[C@H](CO)Nc1nc(NCc2ccc(-c3ccccn3)cc2)c2ncn(C(C)C)c2n1 [CR8] |  | IC50 ([1]; read-out: IC50 (positive control)): 0.4 µM |
| 8.71 ± 0.81 µM | > 10 µM |  |  |  |  | Nc1nc2ccc(OC(F)(F)F)cc2s1 [Compound 1, riluzole, reference compound] |  | IC50 ([2]; read-out: hMAO-A IC50): 8.7 µM; rescue of cell viability after menadione [4]: a viability recovery trend; iNOS expression [5]: moderate decrease of iNOS expression; Bcl-2 expression ([6]; LPS-insulted N9, 1 or 10 μM): increased the level of the anti-apoptotic Bcl-2 marker; IC50 ([1]; read-out: IC50 against CK1δ): 16.1 µM |
|  |  |  |  |  |  | C#CCN[C@@H]1CCc2ccccc21 [Compound 2, rasagiline, reference compound] |  | iNOS expression [5]: moderate decrease of iNOS expression; Bcl-2 expression ([6]; LPS-insulted N9, 1 or 10 μM): increased the level of the anti-apoptotic Bcl-2 marker |
| > 10 µM | > 10 µM | < 50% | < 50% | 64.4% | 24.9 ± 0.25 ×10⁻⁶ cm/s | C#CCN(CC#C)Cc1ccc2nc(N)sc2c1 [Compound 3] | CNS + (CNS +: high BBB permeation predicted, Pe (×10-6 cm s-1) > 4.0) | melting point: 148 °C |
| > 10 µM | > 10 µM | < 50% | < 50% | 69% | 9.3 ± 0.1 ×10⁻⁶ cm/s | C#CCNCc1ccc2nc(N)sc2c1 [Compound 4] | CNS + (CNS +: high BBB permeation predicted, Pe (×10-6 cm s-1) > 4.0) |  |
| 2.73 ± 0.39 µM | 9.31 ± 1.57 µM |  |  | 83.7% | 22.7 ± 0.6 ×10⁻⁶ cm/s | C#CCN(C)Cc1ccc2nc(N)sc2c1 [Compound 5] | CNS + (CNS +: high BBB permeation predicted, Pe (×10-6 cm s-1) > 4.0) | IC50 ([2]; read-out: hMAO-A IC50): 2.7 ± 0.4 µM; SI: hMAO-B selectivity index = IC50 (hMAO-A)/IC50 (hMAO-B) [3]: 0.29; IC50 ([3]; read-out: hMAO-B IC50): 9.3 ± 1.6 µM; rescue of cell viability after menadione [4]: a better restorative activity trend than the combination; rescue of cell viability after menadione [9]: no significant effects; Bcl-2 expression ([6]; LPS-insulted N9, 10 μM): a trend of recovery in Bcl-2 expression; reversal of glutamate-mediated excitotoxicity ([10]; compound 1, 10, 25 μM): no significant changes |
| 6.88 ± 0.46 µM | > 10 µM |  |  | 85.2% | 10.2 ± 0.25 ×10⁻⁶ cm/s | C#CCNc1nc2ccc(N(CC#C)C(C)=O)cc2s1 [Compound 6] | CNS + (CNS +: high BBB permeation predicted, Pe (×10-6 cm s-1) > 4.0) | IC50 ([2]; read-out: hMAO-A IC50): 6.9 µM; SI: hMAO-B selectivity index = IC50 (hMAO-A)/IC50 (hMAO-B) [3]: < 0.69; cytotoxic effects, cell viability [11]: no toxicity; rescue of cell viability after menadione [4]: a better restorative activity trend than the combination; rescue of cell viability after menadione [9]: no significant effects; reduction of iNOS level [5]: about 60%; Bcl-2 expression ([6]; LPS-insulted N9, 10 μM): not evident; Bcl-2 expression ([6]; LPS-insulted N9, 1 or 10 μM): no increase in the level of the Bcl-2 anti-apoptotic marker; Papp [8, 18]: 10.1 ± 0.2 ×10⁻⁶ cm/s; reversal of glutamate-mediated excitotoxicity ([10]; compound at 1 and 10 μM): restored viability |
| > 10 µM | > 10 µM | < 50% | < 50% |  | 7.7 ± 1 ×10⁻⁶ cm/s | C#CCNC1CCc2nc(N)sc2C1 (centres unmarked) [Compound 7] | CNS + (CNS +: high BBB permeation predicted, Pe (×10-6 cm s-1) > 4.0) | Papp [8, 18]: 7.7 ± 1 ×10⁻⁶ cm/s |
| > 10 µM | > 10 µM | < 50% | < 50% |  | 4.6 ± 0.6 ×10⁻⁶ cm/s | C#CCNc1nc2c(s1)CC(N(CC#C)C(C)=O)CC2 (centres unmarked) [Compound 8] | CNS + (CNS +: high BBB permeation predicted, Pe (×10-6 cm s-1) > 4.0) | Papp [8, 18]: 4.6 ± 0.6 ×10⁻⁶ cm/s |
|  |  |  |  |  | 0.62 ± 0.16 ×10⁻⁶ cm/s | CO/N=C(\C(=O)N[C@@H]1C(=O)N2C(C(=O)O)=C(COC(N)=O)CS[C@H]12)c1ccco1 [cefuroxime, reference compound] | CNS - (CNS -: low BBB permeation predicted, Pe (×10-6 cm s-1) < 2.0) |  |
|  |  |  |  |  |  | N[C@@H](CCC(=O)O)C(=O)O [glutamate, reference compound] |  | viability of CGNs exposed to glutamate ([10]; compared with the control): 80% |
|  |  |  |  |  |  | CC1=CC(=O)c2ccccc2C1=O [menadione, 2-methyl-1,4-naphthoquinone, reference compound] |  | viability at 3 h, 10 µM ([12]; LH5, 10 μM menadione): 80%; viability at 3 h, 50 µM ([12]; LH5, 50 μM menadione): ~40%; viability at 3 h, 50 µM [13]: ~80%; cytotoxic effect of menadione ([9]; LPS5, 10 μM menadione): unable to cause a cytotoxic effect |
|  |  |  |  |  |  | CCN(C)C(=O)Oc1cccc([C@H](C)N(C)C)c1 [rivastigmine] |  | CNS prediction [14]: CNS + (key: CNS +: high BBB permeation predicted, Pe (×10-6 cm s-1) > 4.0; CNS -: low BBB permeation predicted, Pe (×10-6 cm s-1) < 2.0) |
